The text below walks through data of patent US10689369B2, “Substituted indazole compounds as RORgammaT inhibitors and uses thereof” (Merck Sharp & Dohme Corp., priority 2015, dated 2020).

For test [1], the target named is PPARγ (Homo sapiens (Human), UniProt P37231). The experiment in a line: Nuclear hormone receptor selectivity assay (GAL4-NHR-LBD luciferase reporter, HEK293). The format is cell-based. Here is the method:
In the assay system used, an activated GAL4-nuclear hormone receptor (NHR) fusion construct binds to an upstream activation sequence (UAS) and drives a luciferase reporter gene. […]
HEK293 cells were transfected with GAL4-NHR-LBD construct (pcDNA3.1neo) and the pGL4.31 GAL4-luciferase reporter construct (Promega) and incubated overnight at 37° C. and 5% CO2. After 16-24 hours, cells were harvested and plated at 20 μL (10,000 cells)/well in tissue-culture treated 384 well plate. […] Next, plates are spun briefly and incubated overnight at 37° C. and 5% CO2. […] In agonist mode, test compound was incubated directly with the cells. For receptors that are not constitutively active, a known agonist is also tested as a positive control.
After 16-24 hours, luciferase activity was measured. Plates and luciferase reagent (e.g. One-Glo® or Dual Glo®; Promega, Madison, Wis.) were brought to room temperature. Next, a 25 μL aliquot of luciferase reagent was added to each well. Plates were spun down briefly and incubated at room temperature for 10 minutes. The luciferase signal was measured on an Envision plate reader (Perkin Elmer) set to the ultra-sensitive luminescence setting.
A general note: In a reporter assay the amount or activity of a reporter protein is the signal.

For test [2], the system named is murine collagen-induced arthritis model. Nature of the test: Murine collagen-induced arthritis model. In kind it is in vivo, DBA/1J mice. Conditions: oral 3, 10 or 30 mg/kg twice daily; FIG. 4. Here is the method: Female DBA/1J mice (Jackson Laboratories, 7-8 weeks old) were received and allowed to acclimate for about one week. On the day of immunization, an emulsion was freshly prepared by homogenizing equal volumes of Complete Freund's Adjuvant (CFA, Chondrex #7001) and a collagen type-2 solution (bovine source, Chondrex #20022) using a tissue homogenizer, on ice. A volume of 0.1 mL of this emulsion was injected subcutaneously into the base of the tail of each mouse, which was lightly anesthetized with isoflurane. Mice recovered from anesthesia were allowed food and water ad libitum.
Eighteen days after immunization, the mice were injected intraperitoneally with 40 μg of lipopolysaccaride (LPS, Sigma # L4005) in 0.2 mL saline, in order to help synchronize the disease progression in all animals. Seven days after LPS injection, the mice were assessed for knee joint swelling by measurement of each knee joint using digital calipers and computing total joint circumference. The total knee joint circumference of the 4 knee joints was then used to randomize mice into treatment groups of equal average circumference.
This dosing continued twice daily at 8- and 16-hour intervals for the duration of the study. As a positive control, one group of mice received 25 mg/kg Jak inhibitor (JAKi) tofacitinib once per day. Joints were measured 2-3 times per week.

Chain of PPARγ (P37231 238-503, species assumed): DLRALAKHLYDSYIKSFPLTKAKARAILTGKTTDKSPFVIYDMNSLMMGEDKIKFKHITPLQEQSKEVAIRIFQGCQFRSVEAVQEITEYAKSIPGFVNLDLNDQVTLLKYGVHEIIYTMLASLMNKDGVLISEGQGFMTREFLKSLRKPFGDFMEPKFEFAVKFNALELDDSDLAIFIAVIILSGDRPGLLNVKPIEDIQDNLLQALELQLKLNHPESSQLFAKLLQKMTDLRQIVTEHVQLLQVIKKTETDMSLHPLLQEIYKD

As to `O=C(O)[C@@H]1CC=C(c2nn(C(=O)c3c(Cl)cccc3C3(C(F)(F)F)CC3)c3c2CC[C@@H](C(=O)N2CCC4(COC4)C2)C3)CC1` [Test Compound], in test [1], the “Agonist Mode, kind of agonism” value was “(partial agonist)”. In addition, the total joint circumference entry in test [2] is listed as “dose-dependent decrease in total joint circumference”.
